Source: patent publication US20260152777A1, “METHOD FOR PRODUCING EPIGALLOCATECHIN GALLATE MONOGLUCOSIDE” (GIVAUDAN SA, priority 2022, published 2026)

How the values were obtained:
Type in all cases: in vivo, human
[1] = tested on: Asian volunteers with dull skin and large senescence spots; assay: Clinical study: skin biomechanical properties by Cutometer (R0, firmness); conditions: for Firmness effect (R0) Mean +/− SD / Firmness effect (R0) Average variation (%) vs D 0: hemiface
Text: For this study, volunteers applied the cream twice a day for 56 days.
GLYCOL, DIMETHICONE, FRAGRANCE
(§1) Volunteers were divided into two groups as follows: • Group 1: 20 Asian women testing the active cream in comparison to the placebo cream with an average age of 54±5 years. • Group 2: 18 Asian women testing the vitamin C cream in comparison to the placebo cream with an average age of 53±8 years.
(§2) Volunteers applied a cream containing 0.4% of active, 2% of ascorbic acid (vitamin C), respectively, on one hemiface and a placebo cream on the other hemiface […] for 56 days.
(§3) During this study, a skin color and spots analysis was conducted using Colorface®, biomechanical properties were tested using Cutometery®, and the dermis thickness was determined using a DUB SkinScanner 75® probe (max. depth of 3.28 mm).
The analysis of the mechanical properties of the skin enables to assess the functional state of the following tissue structures: • The elastic structures, such as elastic fibers, curvature of the connective bundles, wrinkles of the stratum corneum; and • the viscous-behaving structures, such as interstitial fluids, internal adherences.
The study was performed using a Cutometer® MPA 580 (Courage & Khazaka). The measuring principle is based on the suction method: Negative pressure is created in the device and the skin is drawn into a cylindrical aperture (2 mm in diameter) of the probe. Inside the probe, the penetration depth is determined by an optical measuring system. Each suction phase is followed by a relaxing phase.
In the present study, the following program was used: • Length of the cycle: 4 seconds • Suction: 2 seconds • Relaxation: 2 seconds • Negative pressure: 450 millibars • Diameter of the chamber: 2 mm • Area measured: crow's feet
From these curves, the parameters can be calculated. • During the suction phase, the deformation of the skin by the negative pressure measures first the elastic resistance and then the viscous component, which taken together represent skin firmness. • During the relaxation phase, the immediate recovery of the skin measures sheer cutaneous elasticity, whereas the delayed return of the skin to its initial position measures the viscoelastic component.
This study focused on the R0 or Uf parameter, which represents the amplitude of the skin during the suction phase. At equal pressure, the more flexible the skin, the greater the amplitude. Thus R0 (or UF) will evaluate the viscoelastic dispensability, or in other words, the firmness of the skin.
These parameters were measured on D0, D28, D56.

[2] = tested on: Asian volunteers with dull skin and large senescence spots; assay: Clinical study: skin color analysis using Colorface (homogeneity, radiance, pigment defect); conditions: for Pigment defect Mean +/− SD / Radiance Mean +/− SD / Pigment defect Average volume (mm^3) vs D 0 / Radiance Average variation (%) vs D 0: cream with 2% ascorbic acid, hemiface, Asian women; for pigment homogeneity, fold better than the placebo: vitamin C cream 2%
Text: For this study, volunteers applied the cream twice a day for 56 days. […]
as §1, §2, §3
Skin color measurements were performed based on photos taken with the Colorface® acquisition system. Colorface® is a 2D acquisition system for taking standardized and multimodal photos of the entire face. The device is equipped with a 24M pixel sensor and also has a specific UV lamp. The acquisition methods are: UltraViolet, photo without filter, cross-polarized photo, parallel-polarized photo, standard 45° photo, and standard […].
An analysis of the radiance of the complexion, pigment spots, color (L*,a*,b* parameters) and melanin on the spots from photos using image analysis software was performed. 2D photos of the face were taken on D0, D28 and D56.

[3] = tested on: female Caucasian volunteers presenting brown spots on their hands; assay: Clinical study: age-spot removal by Raman spectroscopy (skin background fluorescence, melanin detection); conditions: for Melanin detection Mean +/− SD / Melanin detection TBX − TB0: hands, twice daily, Caucasian women
Method: A double blind and placebo controlled clinical evaluation was carried out on 45 female Caucasian volunteers aged from 45 to 75 years. The volunteers were presenting brown spots on their hands. All the subjects participating in the study gave their informed consent at the beginning of the study. […] At D0 and D56, the anti-spot efficacy was analyzed by Raman spectroscopy. The compositions described in Example 12 were used. The set-up included a confocal Raman probe coupled to a dispersive Raman spectrograph. The excitation laser beam was sent to the remote probe via a 5 μm core-diameter fiber and the Raman signal was conveyed to the spectrograph via a 100 μm core-diameter fiber. The probe was equipped with a 100× long working distance objective operating in air. A piezo-electric device allowed to collect Z Raman profiles by assuring axial measurements from the surface down to a defined depth in the skin. A color video camera integrated in the probe permitted to visualize the skin surface. This camera is also useful to control the focalization of the laser on the skin. The spectrograph was equipped with a CCD (Coupled Charge Detector) of 1024×256 elements cooled by Peltier effect, and an 830 grooves/mm grating, which allows to cover a large spectral range from 550 to 3700 cm^−1 in a single shot acquisition, with a spectral resolution of about 6 cm^−1. The excitation source was a 660 nm laser diode and the power at the sample was set to 30 mW in accordance with protection standards for radiation. For protection against laser radiation, protective glasses were used. The 660 nm excitation was chosen as the optimal compromise between generation of parasitic fluorescence and sensitivity of the CCD camera over the whole spectral range. For skin characterization, the measurement of high wavenumber vibrations is important to access information on water content. For data acquisition, the device was controlled by the Labspec 5 software. The Z profiles consist of an in-depth scanning through the skin. Raman spectra were collected at different focus points, from skin surface Z=0 μm to 30 μm (under the skin surface) with 3 μm steps. The measurement depths are indicated in the following table with the corresponding acquisition times, leading to a time of 1 min for a complete profile. In total, 519 Raman profiles were recorded: 2 profiles per condition and for each area (unstained area and brown spot area). Each profile comprises 14 spectra, resulting in recorded 7266 spectra. These measurements were used for the evaluation of the spectroscopic marker of skin background fluorescence. This marker is associated with the degree of skin lightening: A decrease in this marker indicates a positive skin lightening effect, whereas a stability or an increase in this marker means that the product has no lightening effect on the skin. The pre-processing of spectral data was performed using Matlab 7.2 (The MathWorks Inc., USA). Aberrant profiles (bad S/N (signal/noise) ratio, fluorescence, incomplete profile with a large zero offset, saturation . . . ) were excluded from the data base. Each non-aberrant profile was submitted to background corrections, which allowed to clean up the Raman signal of the skin. These background corrections included smoothing spectra with a 9-mm Savitzky-Golay filter, spikes correction, […] the normalization on the intensity of the entire wavenumber range with a vectorial function. A baseline correction was not done in order to preserve the skin background fluorescence, which allows for the extraction of the skin fluorescence markers associated with the degree of skin lightening. After these pre-processing steps, corrected data were used to determine the spectra corresponding to the Stratum corneum surface. […] The skin properties were evaluated using Raman spectroscopy after 28 and 56 days of twice daily application.

[4] = cream with 2% ascorbic acid, Asian women, D 28
[5] = cream with 2% ascorbic acid, Asian women, D 56

Question: Which results are given for `O=C1O[C@H]([C@@H](O)CO)C(O)=C1O` [Ascorbic acid, ascorbic acid]?
Answer: Firmness effect (R0) Mean +/− SD ([1]; cream with 2% ascorbic acid, Asian women, D 0 (baseline)): 0.283 ± 0.036 arbitrary unit; Firmness effect (R0) Average variation (%) vs D 0 [1, 4]: −6.9%; Firmness effect (R0) Mean +/− SD [1, 4]: 0.263 ± 0.032 arbitrary unit; Firmness effect (R0) Average variation (%) vs D 0 [1, 5]: −6.5%; Firmness effect (R0) Mean +/− SD [1, 5]: 0.264 ± 0.046 arbitrary unit; Pigment defect Mean +/− SD ([2]; D 0 (baseline)): 15660 ± 4532 arbitrary unit; Radiance Mean +/− SD ([2]; D 0 (baseline)): 72.3 ± 1.6 arbitrary unit; Pigment defect Average volume (mm^3) vs D 0 ([2]; D 28): −11.7%; Pigment defect Mean +/− SD ([2]; D 28): 13826 ± 4311 arbitrary unit; Radiance Average variation (%) vs D 0 ([2]; D 28): 0.7%; Radiance Mean +/− SD ([2]; D 28): 72.7 ± 1.9 arbitrary unit; Pigment defect Average volume (mm^3) vs D 0 ([2]; D 56): −16.5%; Pigment defect Mean +/− SD ([2]; D 56): 13078 ± 3731 arbitrary unit; Radiance Average variation (%) vs D 0 ([2]; D 56): 1.4%; Radiance Mean +/− SD ([2]; D 56): 73.3 ± 2.3 arbitrary unit; pigment homogeneity, fold better than the placebo ([2]; day 28): 1.6 fold; pigment homogeneity, fold better than the placebo ([2]; day 56): 1.8 fold; Melanin detection Mean +/− SD ([3]; ascorbic acid at 2%, D 0 (baseline)): 49.80 ± 13.13 arbitrary unit; Melanin detection Mean +/− SD ([3]; ascorbic acid at 2%, D 28): 52.05 ± 11.23 arbitrary unit; Melanin detection TBX − TB0 ([3]; ascorbic acid at 2%, D 28): +2.25 a.u; Melanin detection Mean +/− SD ([3]; ascorbic acid at 2%, D 56): 32.28 ± 10.43 arbitrary unit; Melanin detection TBX − TB0 ([3]; ascorbic acid at 2%, D 56): −17.52 a.u

Question: With `O=C(O[C@@H]1Cc2c(O)cc(O)cc2O[C@@H]1c1cc(O)c(O[C@H]2O[C@H](CO)[C@@H](O)[C@H](O)[C@H]2O)c(O)c1)c1cc(O)c(O)c(O)c1` [epigallocatechin gallate 4′-O-α-monoglucoside] as the compound, how does the “improvement of skin firmness relative to the placebo cream” value ([1]; active cream 0.4%, Asian women) read?
Answer: up to 21 fold

Question: And the “Firmness effect (R0) Average variation (%) vs D 0” value ([1]; active cream 0.4%, Asian women, D 28)?
Answer: ~8.7%

Question: And the “Firmness effect (R0) Average variation (%) vs D 0” value ([1]; active cream 0.4%, Asian women, D 56)?
Answer: −8.2%

Question: What about the “improvement of skin firmness, times better than placebo” value ([1]; after 56 days) of the same compound?
Answer: up to 21 times

Question: And the “effect on pigment homogeneity, times more pronounced relative to the placebo” value ([2]; active cream 0.4%, after 28 days)?
Answer: 3.0 times

Question: And the “reduction of pigment defect (melanin content in pigmented spots area) compared to the placebo” value ([2]; active cream 0.4%, after 56 days)?
Answer: up to −21.7%

Question: And the “reduction of skin heterogeneity” value ([3]; Caucasian volunteers having pigmented spots on their hands)?
Answer: up to −24%

Question: And the “Melanin detection TBX − TB0” value ([3]; product with 0.4% purified preparation, D 28)?
Answer: −10.2 a.u

Question: And the “Melanin detection TBX − TB0” value ([3]; product with 0.4% purified preparation, D 56)?
Answer: −20.4 a.u
